Experiments:
Danio rerio embryo [1] = assay: LEL embryonic photomotor response 24 hpf
Description: (§1)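 ZBEscreen: dechorionated Tropical 5D zebrafish embryos were exposed from 4 hpf in 96-well plates (1% DMSO, 28 °C). All compounds were first tested at 100 µM; hits were retested at 0.005-100 µM. Morphology and mortality were scored at 120 hpf and fitted as BMC10 (3-parameter log-logistic, extra risk). The embryonic photomotor response at 24 hpf and the larval photomotor response at 120 hpf are given as lowest effect levels (K-S test, p<0.01). NA = not significant up to 100 µM; NT = not tested.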

Danio rerio embryo [2] = assay: LEL larval photomotor response dark phase 120 hpf
Description: as §1

Danio rerio embryo [3] = assay: BMC10 any morphological effect or mortality at 120 hpf; higher = less toxic
HL-60 = assay: Cell Health Index (toxicity pseudo-probability over dose series) (index 0-1); higher = more cytotoxic / cell stress;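 further: HL-60 cells exposed 4 h at 37 °C to ten threefold dilutions spanning 5 nM to 100 µM, multiparametric flow cytometry features scored by machine-learning classification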

SMILES	LEL embryonic photomotor response 24 hpf (Danio rerio embryo [1]) [µM]	LEL larval photomotor response dark phase 120 hpf (Danio rerio embryo [2]) [µM]	BMC10 any morphological effect or mortality (Danio rerio embryo [3]) [µM]	Cell Health Index (HL-60)
CCN(CC)Cc1cc(Nc2ccnc3cc(Cl)ccc23)ccc1O [Amodiaquine]	1.23	11.1	4.04	0.271
CC(C)[C@H](NC(=O)[C@H](CCCNC(=N)N)NC(=O)NC(Cc1ccccc1)C(=O)O)C(=O)NC(C=O)CCCNC(=N)N.Cl.Cl (stereo partly drawn) [Antipain]	> 100	> 100	> 100	0.154
O=c1cc(-c2ccc(O)cc2)oc2cc(O)cc(O)c12 [Apigenin]	> 100	> 100	> 100	0.288
COc1cc(C[C@H]2C(=O)OC[C@@H]2Cc2ccc(OC)c(OC)c2)ccc1O [Arctigenin]	> 100	3.7	> 100	0.617
O=C1NC(=O)c2c1c1c3ccccc3[nH]c1c1[nH]c3ccccc3c21 [Arcyriaflavin A]	> 100	> 100	1.1	0.393
CO[C@H]1O[C@@H]2O[C@@]3(C)CC[C@H]4[C@H](C)CC[C@@H]([C@H]1C)[C@@]24OO3 [Artemether]	11.1	0.41	3.55	0.289
C[C@@H]1CC[C@H]2[C@@H](C)C(=O)O[C@@H]3O[C@@]4(C)CC[C@@H]1[C@]32OO4 [Artemisinin]	33.3	3.7	39.4	0.169
C=C[C@@H]1C[C@]1(NC(=O)[C@@H]1C[C@H](Oc2ncc(OC)c3ccc(Cl)cc23)CN1C(=O)[C@@H](NC(=O)OC(C)(C)C)C(C)(C)C)C(=O)NS(=O)(=O)C1CC1 [Asunaprevir]	11.1	3.7	> 100	0.536
CC(=O)O/N=C1/C(=C2\C(=O)Nc3cc(Br)ccc32)Nc2ccccc21 [BIO-Acetoxime]	> 100	33.3	> 100	0.715
O=c1cc(-c2ccccc2)oc2cc(O)c(O)c(O)c12 [Baicalein]	> 100	> 100	> 100	0.551
C=C(C)[C@@H]1CC[C@]2(C(=O)O)CC[C@]3(C)[C@H](CC[C@@H]4[C@@]5(C)CC[C@H](O)C(C)(C)[C@@H]5CC[C@]43C)[C@@H]12 [Betulinic acid]	> 100	100	> 100	0.4
C[C@H]1CO[C@@H]2Cn3cc(C(=O)NCc4ccc(F)cc4F)c(=O)c(O)c3C(=O)N12 [Cabotegravir]	> 100	> 100	> 100	0.321
OC[C@H]1O[C@@H](O[C@@H]2OC=C[C@H]3[C@H](O)[C@@H]4O[C@]4(CO)[C@@H]23)[C@H](O)[C@@H](O)[C@@H]1O [Catalpol]	> 100	> 100	> 100	0.184
O=C(OC[C@H]1O[C@@H](OC(=O)c2cc(O)c(O)c(OC(=O)c3cc(O)c(O)c(O)c3)c2)[C@H](OC(=O)c2cc(O)c(O)c(OC(=O)c3cc(O)c(O)c(O)c3)c2)[C@@H](OC(=O)c2cc(O)c(O)c(OC(=O)c3cc(O)c(O)c(O)c3)c2)[C@@H]1OC(=O)c1cc(O)c(O)c(OC(=O)c2cc(O)c(O)c(O)c2)c1)c1cc(O)c(O)c(OC(=O)c2cc(O)c(O)c(O)c2)c1 [Chinese Gallotannin]	100	> 100	32.8	0.935
CC(C)c1nc(CN(C)C(=O)N[C@@H](CCN2CCOCC2)C(=O)N[C@H](CC[C@H](Cc2ccccc2)NC(=O)OCc2cncs2)Cc2ccccc2)cs1 [Cobicistat]	> 100	> 100	> 100	0.831
Cl.N=c1ccn2c(n1)O[C@H]1[C@H](O)[C@@H](CO)O[C@H]12 [Cyclocytidine]	> 100	> 100	> 100	0.207
C/C=C/C[C@@H](C)[C@@H](O)[C@H]1C(=O)N[C@@H]([C@@H](C)O)C(=O)N(C)CC(=O)N(C)[C@@H](CC(C)C)C(=O)N[C@@H](C(C)C)C(=O)N(C)[C@@H](CC(C)C)C(=O)N[C@@H](C)C(=O)N[C@H](C)C(=O)N(C)[C@@H](CC(C)C)C(=O)N(C)[C@@H](CC(C)C)C(=O)N(C)[C@@H](C(C)C)C(=O)N1C [Cyclosporin C]	33.3	3.7	> 100	0.918
S=C([S-])OC1CC2CC1C1CCCC21.[K+] (stereo not drawn) [D609 parent]	> 100	> 100	> 100	0.277
C[C@H](NC(=O)Cc1cc(F)cc(F)c1)C(=O)N[C@@H]1C(=O)N(C)c2ccccc2-c2ccccc21 [DBZ]	11.1	0.41	0.365	0.293
C[C@@H]1CCO[C@H]2Cn3cc(C(=O)NCc4ccc(F)cc4F)c(=O)c(O)c3C(=O)N12 [Dolutegravir]	> 100	> 100	> 100	0.167
CC(C)C[C@H](NC(=O)[C@H]1O[C@@H]1C(=O)O)C(=O)NCCCCNC(=N)N [E-64]	> 100	> 100	> 100	0.121
Cc1cc(C#N)cc(C)c1Oc1nc(Nc2ccc(C#N)cc2)nc(N)c1Br [Etravirine]	> 100	> 100	> 100	0.898
COc1ccc(-c2coc3cc(O)ccc3c2=O)cc1 [Formononetin]	100	> 100	23	0.288
O=C(NCc1ccco1)c1ccc2c(c1)N(Cc1c(F)cccc1Cl)C(=O)CS2 [G10]	11.1	> 100	> 100	0.311
CCOC(=O)c1ccc(OC(=O)CCCCCNC(=N)N)cc1.CS(=O)(=O)O [Gabexate]	> 100	> 100	> 100	0.22
CCS(=O)(=O)Nc1ccc2c(c1)/C(=C(/Nc1ccc(CN3CCCCC3)cc1)c1ccccc1)C(=O)N2 [Hesperadin]	3.7	> 100	2.02	0.882

SMILES	LEL embryonic photomotor response 24 hpf (Danio rerio embryo [1]) [µM]	LEL larval photomotor response dark phase 120 hpf (Danio rerio embryo [2]) [µM]	BMC10 any morphological effect or mortality (Danio rerio embryo [3]) [µM]	Cell Health Index (HL-60)
OC1=CC(OC)=C(C(CC(C2=CC=C(O)C=C2)O3)=O)C3=C1C/C=C(C)/C (stereo not drawn) [Isoxanthohumol]	> 100	> 100	> 100	0.183
CCC(=O)c1ccc(F)c([C@@H]2C[C@@H]2NC(=O)Nc2ccc(C#N)cn2)c1O [MIV-150]	> 100	> 100	> 100	0.306
CC(C)(C)C1=C(O)C(C(C)(C)C)=CC(/C=C(C#N)\C#N)=C1 [Malonoben]	0.14	> 100	> 100	0.861
O=C1CCC[C@@H]2[C@H]3CCCN4CCC[C@@H](CN12)[C@@H]34 [Matrine]	> 100	> 100	> 100	0.14
CC1(C)CC(NC(=O)C(=O)Nc2ccc(Cl)cc2)CC(C)(C)N1 [NBD-556]	100	11.1	45.7	0.302
CS(=O)(=O)O.CS(=O)(=O)O.N=C(N)Nc1ccc(C(=O)Oc2ccc3cc(C(=N)N)ccc3c2)cc1 [Nafamostat]	> 100	> 100	> 100	0.422
COc1cc(-c2oc3cc(O)cc(O)c3c(=O)c2O[C@@H]2O[C@H](CO[C@@H]3O[C@@H](C)[C@H](O)[C@@H](O)[C@H]3O)[C@@H](O)[C@H](O)[C@H]2O)ccc1O [Narcissoside]	> 100	> 100	> 100	0.248
CCC(CC)O[C@@H]1C=C(C(=O)O)C[C@H](N)[C@H]1NC(C)=O [Oseltamivir acid]	0.046	> 100	> 100	0.174
CC(=O)c1c(O)cc(O)cc1O.O [Phloroacetophenone]	> 100	> 100	> 100	0.231
COc1cc(NC(C)CCCN)c2ncccc2c1.O=P(O)(O)O.O=P(O)(O)O (stereo not drawn) [Primaquine]	> 100	> 100	> 100	0.352
CC(C)(Sc1cc(C(C)(C)C)c(O)c(C(C)(C)C)c1)Sc1cc(C(C)(C)C)c(O)c(C(C)(C)C)c1 [Probucol]	0.005	> 100	> 100	0.134
Oc1cc(O)c2c(c1)O[C@H](c1ccc(O)c(O)c1)[C@H](O)[C@H]2c1c(O)cc(O)c2c1O[C@H](c1ccc(O)c(O)c1)[C@@H](O)C2 [Procyanidin B1]	> 100	> 100	> 100	0.406
O=c1ccc2cc3ccoc3cc2o1 [Psoralen]	100	33.3	29.2	0.105
O.O=c1c(O)c(-c2ccc(O)c(O)c2)oc2cc(O)cc(O)c12 [Quercetin]	> 100	> 100	> 100	0.461
C=C[C@H]1C[N@@]2CC[C@H]1C[C@@H]2[C@@H](O)c1ccnc2ccc(OC)cc12 [Quinidine]	> 100	> 100	> 100	0.197
FC(F)(F)c1cc(C(F)(F)F)c2ccc3nc(-c4nnco4)cn3c2n1 [RO8191]	11.1	11.1	26.9	0.274
O=C(Nc1ccccc1F)N[C@H]1N=C(c2ccccc2)c2ccccc2NC1=O [RSV-604]	> 100	> 100	> 100	0.368
Cc1ccc(C2Nc3ccccc3C(=O)N2c2ccccc2)s1 (stereo not drawn) [Retro-2]	0.14	> 100	0.795	0.241
O=C(Nc1c(Cl)cncc1Cl)c1ccc(OC(F)F)c(OCC2CC2)c1 [Roflumilast]	0.015	0.14	> 100	0.296
COc1c2c(cc3c1-c1c(cc4c(c1OC)OCO4)CC(C)C(C)C3)OCO2 (stereo not drawn) [Schisandrin C]	11.1	> 100	2.06	0.61
C/C=C(/C)C(=O)O[C@H]1c2cc(OC)c(OC)c(OC)c2-c2c(cc3c(c2OC)OCO3)C[C@H](C)[C@]1(C)O [Schisantherin B]	100	> 100	65.9	0.365
C[C@H]1CC[C@@]2(OC1)O[C@H]1C[C@H]3[C@@H]4CC[C@@H]5C[C@@H](O[C@@H]6O[C@H](CO)[C@H](O)[C@H](O)[C@H]6O[C@@H]6O[C@H](CO)[C@@H](O)[C@H](O)[C@H]6O)CC[C@]5(C)[C@H]4CC[C@]3(C)[C@H]1[C@@H]2C [Timosaponin AIII]	> 100	> 100	> 100	0.935
N#C/C(=C\c1ccc(O)c(O)c1)C(=O)NCCCc1ccccc1 [Tyrphostin AG 555]	> 100	> 100	1.13	0.494
Ic1cccc(/C=N/Nc2nc(N3CCOCC3)nc(N(c3ccccc3)c3ccccc3)n2)c1 [Vacuolin-1]	33.3	> 100	> 100	0.271
Cc1ccc(NC(=O)C(=O)NC2CC(C)(C)NC(C)(C)C2)cc1 [YYA-021]	100	33.3	> 100	0.184
Cc1cc(C)nc(NS(=O)(=O)c2ccc(NC(=S)NC(=O)COc3ccc(Br)cc3Cl)cc2)n1 [ZCL 278]	100	> 100	> 100	0.221
